Experimental data from patent US4260606A, “3-Methyleneazetidine derivatives” (A. H. Robins Company, Inc., priority 1979, dated 1981).
Where “and” joins values, the source holds several entries; their conditions need not be identical. Equal values may be shown once. Read-outs that look alike come from different tables or passages of the source.

Tested on: Tetrabenazine-Induced Ptosis
Assay: Blockade of Tetrabenazine-Induced Ptosis in Mice (anti-tetrabenazine test)
Format: in vivo, mice (ICR-DUB strain)
Settings: for ED50: Mus musculus, ip, read-out: ED50 (95% Confidence Limits), blockade of tetrabenazine-induced ptosis
Method: Antidepressant agents block many of the behavioral and physiological effects of tetrabenazine and reserpine, such as motor depression, hypothermia, and ptosis. […] Thirty minutes later the presence or absence of complete eyelid closure (ptosis) is assessed in each animal. For compounds which produced blockage of ptosis in all animals, and ED50 value is obtained using a minimum of three geometrically spaced doses with five mice/dose.

[1] = mice, IP, 30 minutes prior to tetrabenazine 32 mg/kg IP, ptosis assessed thirty minutes later, probit analysis, 95% confidence limits

SMILES	ED50 [1] [mg/kg]	ED50 (95% Confidence Limits), blockade of tetrabenazine-induced ptosis [1]	ED50 [mg/kg]
CN(C)CCCN1c2ccccc2CCc2ccccc21 [imipramine]	0.3	0.4 (0.2-0.9) mg/kg IP and 0.5 (0.2-1.2) mg/kg IP	
CCOc1ccccc1OCC1CNCCO1 (stereo not drawn) [viloxazine]			1.5
